Experiments:
[1] = system: enterovirus D68; assay: Anti-viral activity against Enterovirus D68 US/KY/14-18953 infected in human RD cells assessed as reduction in virus induced cytopathic effect incubated for 3 days by CPE assay; assay type: functional, organism-based; details: Enterovirus D, US/KY/14-18953, RD, 72 h
[2] = Cytotoxicity against human RD cells incubated for 3 days by neutral red uptake method; assay type: cell-based, Rhabdomyosarcoma cell; details: time 3 day
[3] = Selectivity index, ratio of CC50 for human RD cells to EC50 for Enterovirus D68 US/KY/14-18953 in human RD cells; assay type: toxicity, cell-based; details: read-out: Ratio CC50/EC50
[4] = system: enterovirus D68; assay: Anti-viral activity against Enterovirus D68 US/MO/14-18947 infected in human RD cells assessed as reduction in virus induced cytopathic effect incubated for 3 days by CPE assay; assay type: functional, organism-based; details: Enterovirus D, US/MO/14-18947, RD, 72 h
[5] = Cytotoxicity against Enterovirus A71 Tainan/4643/1998 infected human RD cells incubated for 3 days by neutral red uptake method; assay type: functional; details: Rhabdomyosarcoma cell, 72 h, time 3 day
[6] = Selectivity index, ratio of CC50 for human RD cells to EC50 for Enterovirus A71 Tainan/4643/1998 in human RD cells; assay type: toxicity, cell-based; details: read-out: Ratio CC50/EC50
[7] = Selectivity index, ratio of CC50 for african green monkey Vero cells to EC50 for Coxsackievirus B3 in green monkey Vero cells; assay type: toxicity, cell-based; details: read-out: Ratio CC50/EC50
[8] = system: Coxsackievirus B3; assay: Anti-viral activity against Coxsackievirus B3 infected in green monkey Vero cells assessed as reduction in virus induced cytopathic effect incubated for 3 days by CPE assay; assay type: functional, organism-based; details: Enterovirus B, 72 h
[9] = system: enterovirus D68; assay: Anti-viral activity against Enterovirus D68 US/MO/14-18949 infected in human RD cells assessed as reduction in virus induced cytopathic effect incubated for 3 days by CPE assay; assay type: functional, organism-based; details: Enterovirus D, US/MO/14-18949, RD, 72 h
[10] = Cytotoxicity against Enterovirus D68 US/MO/14-18947 infected human RD cells incubated for 3 days by neutral red uptake method; assay type: functional; details: Rhabdomyosarcoma cell, 72 h, pooled result: one value given for 4 cell lines, strains, targets or settings, time 3 day
[11] = Cytotoxicity against Enterovirus D68 US/IL/14-18952 infected human RD cells incubated for 3 days by neutral red uptake method; assay type: functional; details: Rhabdomyosarcoma cell, 72 h, time 3 day
[12] = Cytotoxicity against Enterovirus A71 MP4 infected human RD cells incubated for 3 days by neutral red uptake method; assay type: functional; details: Rhabdomyosarcoma cell, 72 h, time 3 day
[13] = Selectivity index, ratio of CC50 for human RD cells to EC50 for Enterovirus A71 USA/CT/2016-19519 infected in human RD cells; assay type: toxicity, cell-based; details: read-out: Ratio CC50/EC50
[14] = Selectivity index, ratio of CC50 for human RD cells to EC50 for Enterovirus A71 MP4 in human RD cells; assay type: toxicity, cell-based; details: read-out: Ratio CC50/EC50
[15] = system: enterovirus D68; assay: Anti-viral activity against Enterovirus D68 US/MO/14-18947 infected in human RD cells assessed as inhibition of plaque formation incubated for 3 days by plaque assay based crystal violet staining analysis; assay type: functional, organism-based; details: Enterovirus D, US/MO/14-18947, RD, 72 h
[16] = system: Enterovirus; assay: Anti-viral activity against Enterovirus D68 US/MO/14-18947 infected in human SH-SY5Y cells assessed as inhibition of virus replication by immunofluorescence staining using anti-VPI antibody; assay type: functional, organism-based; details: D68 US/MO/14-18947, SH-SY5Y
[17] = system: Enterovirus A71; assay: Anti-viral activity against Enterovirus A71 Tainan/4643/1998 infected in human RD cells assessed as reduction in virus induced cytopathic effect incubated for 3 days by CPE assay; assay type: functional, organism-based; details: Enterovirus A, Tainan/4643/1998, RD, 72 h
[18] = system: enterovirus D68; assay: Anti-viral activity against Enterovirus D68 US/IL/14-18952 infected in human RD cells assessed as reduction in virus induced cytopathic effect incubated for 3 days by CPE assay; assay type: functional, organism-based; details: Enterovirus D, US/IL/14-18952, RD, 72 h
[19] = system: Enterovirus A71; assay: Anti-viral activity against Enterovirus A71 MP4 infected in human RD cells assessed as reduction in virus induced cytopathic effect incubated for 3 days by CPE assay; assay type: functional, organism-based; details: Enterovirus A, 72 h
[20] = system: enterovirus D68; assay: Antiviral activity against Enterovirus D68 US/MO/14-18947 harboring 2C protein D183V/D323G drug resistant mutant by CPE assay followed by viral 2C gene sequencing; assay type: functional, organism-based; details: Enterovirus D
[21] = system: enterovirus D68; assay: Anti-viral activity against Enterovirus D68 US/IL/14-18956 infected in human RD cells assessed as reduction in virus induced cytopathic effect incubated for 3 days by CPE assay; assay type: functional, organism-based; details: Enterovirus D, US/IL/14-18956, RD, 72 h

## CC(C)n1ncc2c(C(=O)Nc3ccccn3)cc(-c3cccs3)nc21
[1]
  EC50: 0.2 µM
[2]
  CC50 at 72 h: > 50 µM
[3]
  selectivity ratio: > 250
[4]
  EC50: 0.1 µM

## CCC(C)n1ncc2c(C(=O)NCCN(C)C)cc(C3CC3)nc21 (centres undefined)
[5]
  CC50: 40.7 µM

## CNCCNC(=O)c1cc(C)nc2c1cnn2C(C)C
[3]
  selectivity ratio: > 130
[6]
  selectivity ratio: > 600
[7]
  selectivity ratio: > 214

## Cc1cc(C(=O)NCCN(C)C)c2c(C)nn(C(C)(C)C)c2n1
[8]
  EC50: 2.1 µM
[4]
  EC50: 0.4 µM
[9]
  EC50: 0.7 µM
[10]
  CC50: 117 µM
[11]
  CC50: 117 µM
[12]
  CC50: 117 µM
[13]
  selectivity ratio: 89.7
[14]
  selectivity ratio: 58.3
[15]
  EC50: 0.13 µM
[16]
  EC50: 0.34 µM

## Cc1cc(C(=O)NCCN)c2cnn(C(C)C)c2n1
[3]
  selectivity ratio: > 63.8
[6]
  selectivity ratio: > 429
[7]
  selectivity ratio: > 78.9

## CC(C)c1cc(C(=O)NCCN)c2cnn(C(C)C)c2n1
[1]
  EC50: 0.6 µM
[2]
  CC50 at 72 h: 170 µM

## CC(C)n1ncc2c(C(=O)NCCN(C)C)cc(C(C)(C)C)nc21
[2]
  CC50 at 72 h: 31.4 µM

## CCCn1ncc2c(C(=O)NCCN(C)C)cc(C3CC3)nc21
[17]
  EC50: 2 µM
[2]
  CC50 at 72 h: 57.7 µM

## CC(C)n1ncc2c(C(=O)NCCN(C)C)cc(C3CC3)nc21
[2]
  CC50 at 72 h: 200 µM
[5]
  CC50: 200 µM
[4]
  EC50: 0.07 µM
[9]
  EC50: 0.1 µM
[18]
  EC50: 0.04 µM
[10]
  CC50: 200 µM
[11]
  CC50: 200 µM
[19]
  EC50: 0.1 µM
[15]
  EC50: 0.025 µM
[20]
  EC50: 1.9 µM

## Cc1cc(C(=O)NC2CCN(C)C2)c2cnn(C(C)C)c2n1 (centres undefined)
[3]
  selectivity ratio: > 167
[6]
  selectivity ratio: > 600
[7]
  selectivity ratio: > 375

## CC(C)n1ncc2c(C(=O)NCCN)cc(C3CC3)nc21
[17]
  EC50: 0.4 µM
[5]
  CC50: 259 µM

## CC(C)n1ncc2c(C(=O)NCCCN(C)C)cc(C3CC3)nc21
[5]
  CC50: 74.1 µM
[7]
  selectivity ratio: > 500

## CC(CN)NC(=O)c1cc(C2CC2)nc2c1cnn2C(C)C (centres undefined)
[1]
  EC50: 0.3 µM
[5]
  CC50: 113 µM

## Cc1cc(C(=O)NC2CN(C)C2)c2cnn(C(C)C)c2n1
[3]
  selectivity ratio: > 26.5
[6]
  selectivity ratio: > 41.1
[7]
  selectivity ratio: > 78.9

## Cc1nn(C(C)(C)C)c2nc(C3CC3)cc(C(=O)NCCN(C)C)c12
[2]
  CC50 at 72 h: 45.2 µM

## CC(C)n1ncc2c(C(=O)NCCN)cc(C(C)(C)C)nc21
[2]
  CC50 at 72 h: 24.6 µM

## CN(C)CCNC(=O)c1cc(C2CC2)nc2c1cnn2C
[2]
  CC50 at 72 h: > 300 µM
[3]
  selectivity ratio: > 30.6

## Cc1cc(C(=O)NCCN(C)C)c2cnn(C(C)C)c2n1
[5]
  CC50: 112 µM
[7]
  selectivity ratio: > 1500

## CC(C1CC1)n1ncc2c(C(=O)NCCN(C)C)cc(C3CC3)nc21 (centres undefined)
[5]
  CC50: 28.4 µM

## CCn1ncc2c(C(=O)NCCN(C)C)cc(C3CC3)nc21
[5]
  CC50: 263 µM
[7]
  selectivity ratio: > 167

## CCN(CC)CCNC(=O)c1cc(C2CC2)nc2c1cnn2C(C)C
[5]
  CC50: 89.9 µM

## CNCCCNC(=O)c1cc(C2CC2)nc2c1cnn2C(C)C
[2]
  CC50 at 72 h: 183 µM

## CCn1ncc2c(C(=O)NCCNC)cc(C)nc21
[2]
  CC50 at 72 h: > 300 µM
[3]
  selectivity ratio: > 5.1

## CC(CN(C)C)NC(=O)c1cc(C2CC2)nc2c1cnn2C(C)C (centres undefined)
[2]
  CC50 at 72 h: 72.6 µM
[7]
  selectivity ratio: > 7500

## CC(CN(C)C)NC(=O)c1cc(C(C)C)nc2c1cnn2C(C)C (centres undefined)
[3]
  selectivity ratio: > 100
[6]
  selectivity ratio: > 100

## CNCCNC(=O)c1cc(C(C)C)nc2c1cnn2C(C)C
[3]
  selectivity ratio: > 250
[6]
  selectivity ratio: > 1000

## COCCNC(=O)c1cc(C2CC2)nc2c1cnn2C(C)C
[2]
  CC50 at 72 h: 178 µM

## CCn1ncc2c(C(=O)NCCN(C)C)cc(C)nc21
[2]
  CC50 at 72 h: > 300 µM
[3]
  selectivity ratio: > 16.4

## CC(C)c1cc(C(=O)NCCO)c2cnn(C(C)C)c2n1
[2]
  CC50 at 72 h: > 100 µM
[3]
  selectivity ratio: > 10.2

## CCN(CC)CCCNC(=O)c1cc(C2CC2)nc2c1cnn2C(C)C
[5]
  CC50: 43.8 µM

## CNCCNC(=O)c1cc(C2CC2)nc2c1cnn2C(C)C
[17]
  EC50: 0.2 µM
[8]
  EC50: 0.2 µM
[2]
  CC50 at 72 h: 236 µM
[5]
  CC50: 236 µM
[7]
  selectivity ratio: > 500
[4]
  EC50: 0.2 µM
[9]
  EC50: 0.2 µM
[21]
  EC50: 0.2 µM
[18]
  EC50: 0.2 µM
[10]
  CC50: 236 µM
[12]
  CC50: 236 µM
[15]
  EC50: 0.077 µM
[16]
  EC50: 0.07 µM

## CC(CN)NC(=O)c1cc(C(C)C)nc2c1cnn2C(C)C (centres undefined)
[2]
  CC50 at 72 h: 118 µM

## CC(C)n1ncc2c(C(=O)NCCN3CCCC3)cc(C3CC3)nc21
[17]
  EC50: 0.2 µM
[2]
  CC50 at 72 h: 46.5 µM

## CC(C)c1cc(C(=O)NCCN(C)C)c2cnn(C(C)C)c2n1
[5]
  CC50: 161 µM
[7]
  selectivity ratio: > 7500
[21]
  EC50: 0.07 µM
[18]
  EC50: 0.03 µM
[10]
  CC50: 161 µM
[11]
  CC50: 161 µM
[12]
  CC50: 161 µM
[15]
  EC50: 0.023 µM
[16]
  EC50: 0.03 µM

## CNCCNC(=O)c1cc(C2CC2)nc2c1c(C)nn2C(C)(C)C
[5]
  CC50: 31.9 µM
